Laboratory results from ChEMBL document CHEMBL1201862, “PubChem BioAssay data set” (2004).
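Step 1: Grow cells in 96-well plates. Step 2: Expose to compound for 48 hours at 5 concentrations. Step 3: Interpolate endpoints linearly; if unreached, use highest concentration. GI50 marks 50% less growth.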 Active and inactive are the calls of the source. Cut-off read from the data, not from the text of the source: active = GI50 up to about 1.1 µM and inactive = higher.

What was measured:
Test in all cases: NCI-60 cell line screen, 48 h
UACC-62 = system: UACC-62
SN12C = system: SN12C
SNB-75 = system: SNB-75
NCI/ADR-RES = system: NCI/ADR-RES
CCRF-CEM = system: CCRF-CEM
ACHN = system: ACHN
COLO 205 = system: COLO 205
SW-620 = system: SW-620
A549 = system: A549
U-251 = system: U-251
NCI-H460 = system: NCI-H460
NCI-H23 = system: NCI-H23
M14 = system: M14
OVCAR-3 = system: OVCAR-3
SNB-19 = system: SNB-19
UO-31 = system: UO-31
OVCAR-5 = system: OVCAR-5
RPMI-8226 = system: RPMI-8226
MDA-MB-435 = system: MDA-MB-435
NCI-H226 = system: NCI-H226
Hs-578T = system: Hs-578T
PC-3 = system: PC-3
EKVX = system: EKVX
SK-MEL-2 = system: SK-MEL-2
786-0 = system: 786-0
SF-268 = system: SF-268
OVCAR-4 = system: OVCAR-4
SF-295 = system: SF-295
HCT-116 = system: HCT-116
HCT-15 = system: HCT-15
HT-29 = system: HT-29
MOLT-4 = system: MOLT-4
SK-MEL-28 = system: SK-MEL-28
Malme-3M = system: Malme-3M
HOP-62 = system: HOP-62
MDA-N = system: MDA-N
CAKI-1 = system: CAKI-1
BT-549 = system: BT-549
UACC-257 = system: UACC-257
MCF7 = system: MCF7
T47D = system: T47D
K562 = system: K562
MDA-MB-231 = system: MDA-MB-231
A498 = system: A498
SK-OV-3 = system: SK-OV-3
KM12 = system: KM12
SF-539 = system: SF-539
DU-145 = system: DU-145
HCC 2998 = system: HCC 2998
SK-MEL-5 = system: SK-MEL-5
NCI-H522 = system: NCI-H522
RXF 393 = system: RXF 393
IGROV-1 = system: IGROV-1
TK-10 = system: TK-10
LOX IMVI = system: LOX IMVI
OVCAR-8 = system: OVCAR-8
HOP-92 = system: HOP-92
HL-60 = system: HL-60

Measured: GI50

O=[N+]([O-])/C(C(Cl)=C(Cl)Cl)=C(\Nc1cccc2cccnc12)SCc1ccccc1
19.9 µM: HCT-15
inactive: UACC-62 23.3 µM | SN12C 25.3 µM | SNB-75 18.3 µM | NCI/ADR-RES 21.2 µM | CCRF-CEM 14.9 µM | ACHN 23.3 µM | COLO 205 18.8 µM | SW-620 18.4 µM | A549 31.3 µM | U-251 16.1 µM | NCI-H460 21 µM | NCI-H23 17 µM | M14 27.5 µM | OVCAR-3 15.5 µM | SNB-19 16.7 µM | UO-31 18.3 µM | OVCAR-5 30.8 µM | RPMI-8226 22.3 µM | MDA-MB-435 21 µM | NCI-H226 20.3 µM | PC-3 14.8 µM | EKVX 21.1 µM | SK-MEL-2 12.6 µM | 786-0 21.6 µM | SF-268 17.3 µM | OVCAR-4 24.4 µM | SF-295 18.7 µM | HCT-116 19.8 µM | HT-29 23.6 µM | MOLT-4 2.21 µM | SK-MEL-28 19 µM | Malme-3M 15.3 µM | HOP-62 15.8 µM | MDA-N 31.1 µM | CAKI-1 20.7 µM | BT-549 16.9 µM | UACC-257 21.5 µM | MCF7 15.3 µM | T47D 17.7 µM | K562 13.4 µM | MDA-MB-231 27.3 µM | A498 26.7 µM | SK-OV-3 15.8 µM | KM12 17.2 µM | SF-539 16.9 µM | DU-145 21.5 µM | HCC 2998 18.2 µM
active: Hs-578T < 0.01 µM

O=C1NC(=O)C(C(c2ccc(Cl)cc2)C2C(=O)NC(=O)NC2=O)C(=O)N1.c1ccncc1
inactive: UACC-62 > 100 µM | SN12C > 100 µM | NCI/ADR-RES > 100 µM | CCRF-CEM > 100 µM | ACHN > 100 µM | COLO 205 > 100 µM | SW-620 > 100 µM | A549 > 100 µM | U-251 > 100 µM | NCI-H460 > 100 µM | NCI-H23 > 100 µM | M14 > 100 µM | SK-MEL-5 > 100 µM | OVCAR-3 > 100 µM | NCI-H522 > 100 µM | SNB-19 > 100 µM | UO-31 > 100 µM | OVCAR-5 > 100 µM | RPMI-8226 > 100 µM | MDA-MB-435 > 100 µM | NCI-H226 > 100 µM | Hs-578T > 100 µM | PC-3 > 100 µM | EKVX > 100 µM | SK-MEL-2 > 100 µM | 786-0 > 100 µM | OVCAR-4 > 100 µM | RXF 393 58.9 µM | SF-295 > 100 µM | HCT-116 > 100 µM | IGROV-1 > 100 µM | HT-29 > 100 µM | MOLT-4 > 100 µM | TK-10 > 100 µM | SK-MEL-28 > 100 µM | LOX IMVI > 100 µM | Malme-3M > 100 µM | HOP-62 > 100 µM | MDA-N > 100 µM | CAKI-1 > 100 µM | BT-549 > 100 µM | UACC-257 > 100 µM | MCF7 > 100 µM | T47D > 100 µM | K562 > 100 µM | MDA-MB-231 > 100 µM | A498 > 100 µM | OVCAR-8 > 100 µM | HOP-92 > 100 µM | KM12 > 100 µM | HL-60 > 100 µM | DU-145 > 100 µM
> 100 µM: HCT-15
